From Sander's compilation of Henry's law constants (doi:10.1021/je960218u) come the findings set out here.

This series in a line: Henry solubility constant Hcp at 298.15 K (mol/(m3 Pa)). The settings on record: reference: Shiu and Mackay (1997).
On to `Clc1cc(Cl)c(Cl)c(Cl)c1` [1,2,3,5-tetrachlorobenzene], for which the “Henry solubility constant Hcp” value turned out to be 0.0063.
As to `Clc1cccc(Cl)c1Cl` [1,2,3-trichlorobenzene], the “Henry solubility constant Hcp” value stood at 0.0079.
The same measure for `Clc1ccc(Cl)cc1` [1,4-dichlorobenzene]: 0.0041; for `Cc1cccc2c(C)cccc12` [1,5-dimethylnaphthalene]: 0.028.
The same measure for `Clc1cccc2ccccc12` [1-chloronaphthalene]: 0.028; for `CCCCCCCO` [1-heptanol]: 0.18; for `Cc1cccc2ccccc12` [1-methylnaphthalene]: 0.041.
As to `CC(=O)c1ccccc1` [1-phenylethanone], the “Henry solubility constant Hcp” value amounted to 0.93.
`c1ccc2c(c1)Cc1ccccc1-2` [2,3-benzindene]: the “Henry solubility constant Hcp” value is 0.1.
The same measure for `Clc1ccc2ccccc2c1` [2-chloronaphthalene]: 0.03; for `CCCCCC(C)=O` [2-heptanone]: 0.058; for `CC(C)CO` [2-methyl-1-propanol]: 0.37.
The same measure for `CCCC(C)=O` [2-pentanone]: 0.12; for `c1cc2c3c(cccc3c1)CC2` [acenaphthene]: 0.062; for `c1ccc2cc3ccccc3cc2c1` [anthracene]: 0.13.
As for `c1ccc(-c2ccccc2)cc1` [biphenyl], the “Henry solubility constant Hcp” value was 0.032.
The value for `Brc1ccccc1` [bromobenzene] was 0.004; that for `Clc1ccccc1` [chlorobenzene] was 0.0032; that for `c1ccc2ccccc2c1` [naphthalene] was 0.022.
The same measure for `c1ccc2c(c1)ccc1ccccc12` [phenanthrene]: 0.28.
